From publication PMC8497620, “Structure and inhibition of Cryptococcus neoformans sterylglucosidase to develop antifungal agents” (Nature Communications, 2021)
“And” between values parts separate entries of the source, which are not always exact repeats. Equal entries are not always repeated. “Also recorded” adds a separate entry of the source. Where two headings read alike, the source gives them in different places.

Legend:
Cerezyme = target: T1, Cerezyme (Homo sapiens, UniProt P04062, R534H); experiment: Cerezyme activity on mammalian C18-glucosylceramide in presence of hits (LC-MS); format: biochemical; details: for C18-ceramide: hits at 100 µM, 10 µg Cerezyme, 10 µg mammalian C18-glucosylceramide, pH 5.5, 37°C, 3 hours; for inhibition of human Cerezyme: physiological mammalian glucosylceramide substrate, 100 µM compound
T1 construct: purchased Genzyme Corporation, Cambridge, MA, USA
T1 sequence (P04062 40-536 R534H): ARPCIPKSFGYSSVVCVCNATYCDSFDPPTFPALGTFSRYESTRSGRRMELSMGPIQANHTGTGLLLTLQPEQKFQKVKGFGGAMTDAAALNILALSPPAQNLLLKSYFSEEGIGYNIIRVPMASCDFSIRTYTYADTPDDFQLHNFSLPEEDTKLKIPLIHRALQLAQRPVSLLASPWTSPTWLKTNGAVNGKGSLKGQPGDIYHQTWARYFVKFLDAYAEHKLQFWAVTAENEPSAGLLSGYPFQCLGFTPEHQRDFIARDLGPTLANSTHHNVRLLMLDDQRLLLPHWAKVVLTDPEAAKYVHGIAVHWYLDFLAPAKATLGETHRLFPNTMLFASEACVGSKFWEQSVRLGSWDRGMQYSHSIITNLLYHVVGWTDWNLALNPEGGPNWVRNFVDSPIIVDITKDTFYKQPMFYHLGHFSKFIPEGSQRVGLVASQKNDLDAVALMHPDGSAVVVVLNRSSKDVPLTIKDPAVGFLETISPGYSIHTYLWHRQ
Protocol: Supplementary figure 8. Cerezyme is not inhibited by its 1, 9 and 15. 10 µg of Cerezyme was added to 10 µg of mammalian C18-glucosylceramide in the presence of 100 µM of compound hits. The reactions were performed in 50 mM sodium acetate buffer pH5.5 and incubated at 37°C for 3 hours. The amount of C18-ceramide formed was quantified by LC-MS. There was no significant difference between the control (no drug) and samples with 100 µM of hits 1, 9 and 15 (p>0.05). Statistical analysis by one-way ANOVA, Dunnett's Multiple Comparison Test. Data represent the mean +/- SD of n=3 independent experiments.

C. neoformans Sgl1 = C. neoformans Sgl1 (Cryptococcus neoformans var. grubii, UniProt J9W473); experiment: Sgl1 inhibition with native substrate erg-glc; format: biochemical; details: substrate ergosterol 3β-D-glucoside (1 mol%); for inhibition at 0.1 µM: read-out: % Sgl1 Inhibition, 0.1 µM compound; for inhibition at 1 µM: read-out: % Sgl1 Inhibition, 1 µM compound; for inhibition at 10 µM: read-out: % Sgl1 Inhibition, 10 µM compound; for inhibition at 100 µM: read-out: % Sgl1 Inhibition, 100 µM compound
Protocol: To validate the selective inhibition of Sgl1 by these compounds, we first tested their ability to inhibit hydrolysis of erg-glc in vitro.
A 50 μL volume of Cn Sgl1 wild type and 50 μL of mixed micelles of lipid and Triton X-100 in 50 mM Bis-Tris buffer with 150 mM NaCl, 5 mM βME, and 5 mM DTT were mixed and incubated at 37 °C for 10 min (erg-glc, Avanti Polar Lipids) and 1 h (C6-NBD-glcCer, Matreya). For the substrate erg-glc the amount of protein was 5 ng. 150 ng protein was used for reactions with C6-NBD-GlcCer. After the incubation period, each reaction was quenched with a 2:1 chloroform:methanol solution and the organic phase was collected and dried. Then, the lipid content was resuspended in 50 μL methanol and applied to HPLC (Agilent Technologies). Total erg-glc and ergosterol was detected using absorbance at 282 nm on a C-8 column with a flow rate of 0.5 ml/min in methanol/water 90:10 ratio buffered with 1 mM ammonium formate and 0.2% formic acid. A 85:15 ratio of the same eluent was used for C6-NBD-GlcCer and C6-NBD-ceramide monitoring the fluorescence at 470/530 nm excitation/emission. The total area of product was normalized by the total area of its respective substrate.

[1] = tested on: human lung epithelial cancer cell line A549; details: LD50 A549 / IC50 Sgl1
Protocol: The cells were maintained in Dulbecco’s modified eagle medium containing 10% fetal bovine serum and 1% penicillin–streptomycin. At passage 11, 10^5 cells were transferred into each well of 96-well plates and cultured for 18–24 h for the cells to adhere to the well surface. After, the medium was removed and a fresh medium containing the selected compounds at a concentration range of 1–512 μM were added to the wells. Controls with equivalent serial concentrations of DMSO were also evaluated and compared with a control without DMSO. The plate was incubated at 37 °C with 5% CO2. After 24 h, the supernatant was removed and 50 μL of 5 mg/mL 3-(4,5-dimethylthiazol-2-yl)-2,5-diphenyltetrazoliumbromide (MTT) solution in phosphate-buffered saline (PBS) was added to each well. The plates were incubated for an additional 4 h and the formazan crystals formed inside the cell was dissolved by adding 50 μL DMSO.

[2] = target: T2, Cerezyme (human glucosylceramidase) (Homo sapiens, UniProt P04062, R534H); experiment: Effect on Cerezyme activity with res-glp substrate; format: biochemical; details: substrate resorufin 3β-D-glucopyranoside (100 µM)
T2 construct: purchased Genzyme Corporation, Cambridge, MA, USA
T2 sequence (P04062 40-536 R534H): T1 sequence (P04062 40-536 R534H)
Protocol: Resorufin-3β-D-glucopyranoside (res-glp, Sigma-Aldrich) enzyme kinetic assays were performed according to methods described by Urban et al.[16] with modifications. Reaction buffer contained 50 mM citric acid, 176 mM K2HPO4, pH 6, 0.01% Tween-20, and 10 mM sodium taurocholate. The reactions were carried out in black 96-well plates using 20 ng of enzyme with 100 μM res-glp substrate. In all, 10 μL/well of res-glp substrate was added to each well and the reaction was initiated by adding 20 μL enzyme (20 ng). After incubation at 37 °C for 30–40 min, the fluorescence was read at an excitation of 570 (±10) nm and an emission of 610 (±10) nm on a VersaMax™ Microplate Reader from Molecular Devices. A standard curve was prepared with serial dilutions of the free fluorophore, resorufin, in the same volume of assay buffer. All reactions were linear with respect to time and protein concentration and the pH, temperature, and dimethyl sulfoxide (DMSO) optimal tolerance was verified.
The Z′-factor was used for the assessment of the efficiency of the HTS assay for each individual plate. Values greater than 0.5 has been considered as an indicator of an excellent screening assay quality. […] The top three hits identified were re-tested in serial dilution against Sgl1 and cerezyme.

C. neoformans H99 = experiment: Growth inhibition assay (YNB, 1% glucose, sealed plates, limited oxygen); format: cell-based, Cryptococcus neoformans; details: 37 °C, 72 h
Protocol: Five microliters containing 100 cells of C. neoformans H99 were inoculated in solid YNB media without amino acids plus 1% w/v glucose. Plates were then sealed with clear polyolefin sealing tape (ThermoFisher) and incubated at 37 °C for 72 h. Hits 1, 9, and 15 were added to the media at concentrations of 10 and 50 µM. H99, Δsgl1, and Δsgl1 + SGL1 strains were used as controls without compounds.

Chain of C. neoformans Sgl1 (J9W473 entry or part of it): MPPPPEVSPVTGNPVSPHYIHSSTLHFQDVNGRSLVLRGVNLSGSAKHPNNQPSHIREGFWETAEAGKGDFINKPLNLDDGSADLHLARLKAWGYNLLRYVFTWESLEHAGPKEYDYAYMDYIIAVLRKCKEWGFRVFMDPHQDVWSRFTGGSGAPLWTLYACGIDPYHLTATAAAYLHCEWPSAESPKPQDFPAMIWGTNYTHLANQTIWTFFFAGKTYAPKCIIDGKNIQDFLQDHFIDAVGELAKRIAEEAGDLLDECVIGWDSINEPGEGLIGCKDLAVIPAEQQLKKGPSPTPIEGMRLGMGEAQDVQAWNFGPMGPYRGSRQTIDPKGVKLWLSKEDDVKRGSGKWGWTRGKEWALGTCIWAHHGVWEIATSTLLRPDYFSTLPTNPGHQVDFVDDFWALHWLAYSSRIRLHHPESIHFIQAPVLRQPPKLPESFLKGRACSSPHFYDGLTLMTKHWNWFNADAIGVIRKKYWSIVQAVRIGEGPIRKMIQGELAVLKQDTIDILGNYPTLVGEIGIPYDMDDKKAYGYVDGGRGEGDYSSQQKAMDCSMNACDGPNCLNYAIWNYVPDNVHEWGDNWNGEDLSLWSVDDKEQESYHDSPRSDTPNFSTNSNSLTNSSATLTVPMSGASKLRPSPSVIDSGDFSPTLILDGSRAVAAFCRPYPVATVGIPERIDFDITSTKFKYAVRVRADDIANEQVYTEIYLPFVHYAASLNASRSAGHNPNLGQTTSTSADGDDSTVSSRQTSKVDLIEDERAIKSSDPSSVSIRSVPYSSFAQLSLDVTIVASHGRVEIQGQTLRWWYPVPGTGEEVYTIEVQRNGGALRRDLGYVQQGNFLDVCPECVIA

| Structure (SMILES) | C18-ceramide (Cerezyme) | inhibition of human Cerezyme (Cerezyme) | % Sgl1 Inhibition (C. neoformans Sgl1; 0.1 µM compound, 0.1 µM) | % Sgl1 Inhibition (C. neoformans Sgl1; 1 µM compound, 1 µM) | % Sgl1 Inhibition (C. neoformans Sgl1; 10 µM compound, 10 µM) | inhibition at 0.1 µM (C. neoformans Sgl1) | inhibition at 1 µM (C. neoformans Sgl1) | inhibition at 10 µM (C. neoformans Sgl1) | inhibition at 100 µM (C. neoformans Sgl1) | selectivity index (SI = LD50/IC50) [1] | % Cerezyme Inhibition ([2]; 25.0854 µM compound) | inhibition at 25.0854 µM ([2]; 25.0854 µM compound) | % Cerezyme Inhibition ([2]; 50.1708 µM compound) | inhibition at 50.1708 µM ([2]; 50.1708 µM compound) | inhibition at 100.342 µM ([2]; 100.342 µM compound) | % Cerezyme Inhibition ([2]; 200.683 µM compound) | inhibition at 200.683 µM ([2]; 200.683 µM compound) | inhibition at 401.367 µM ([2]; 401.367 µM compound) | inhibition at 800 µM ([2]; 800 µM compound) | growth of wild-type C. neoformans (C. neoformans H99; 50 µM) | also measured |
| --- | --- | --- | --- | --- | --- | --- | --- | --- | --- | --- | --- | --- | --- | --- | --- | --- | --- | --- | --- | --- | --- |
| CC(C)c1nc(N[C@@H]2C[C@@H](CO)N(C)C2)c2cnn(C)c2n1 [Hit 15] | 1251.6 pmol/mL and 855.67 pmol/mL and 1299.99 pmol/mL | not inhibited | 19.6403% | 70.0789% | 95.289% | 26.7% | 73.4% | 95.2% | 100% | > 500 | 1.771% | 1.74% | 3.823% | 2.11% | 5.46% | 6.666% | 9.37% | 13.2% | 16.6% | inhibit growth similarly to C. neoformans Δsgl1; also recorded: lack of growth | selectivity index (SI = LD50/IC50) ([1]; listed as 15): > 512; inhibition at 12.5427 µM ([2]; 12.5427 µM compound): 0%; % Cerezyme Inhibition ([2]; 100.342 µM compound): 6.414%; % Cerezyme Inhibition ([2]; 401.367 µM compound): 12.8892%; % Cerezyme Inhibition ([2]; 800 µM compound): 12.1079%; growth of wild-type C. neoformans (C. neoformans H99; 10 µM): abrogated C. neoformans growth |
| CN1C[C@@H](NC(=O)Cc2ccc3c(c2)NC(=O)CO3)C[C@@H]1CO [Hit 9] | 1045.62 pmol/mL and 1138.29 pmol/mL and 953.48 pmol/mL | not inhibited | 58.2711% | 93.4351% | 98.2082% | 52.2% | 92.9% | 97.6% | 98.1% | > 500 | 2.143% | 2.64% | 6.259% | 5.68% | 6.87% | 9.927% | 9.82% | 14.1% | 16.7% | inhibit growth similarly to C. neoformans Δsgl1; also recorded: lack of growth | % Sgl1 Inhibition (C. neoformans Sgl1; 100 µM compound, 100 µM): 100%; % Cerezyme Inhibition ([2]; 12.5427 µM compound): 0.6044%; inhibition at 12.5427 µM ([2]; 12.5427 µM compound): 1.03%; % Cerezyme Inhibition ([2]; 100.342 µM compound): 7.029%; % Cerezyme Inhibition ([2]; 401.367 µM compound): 12.2165%; growth of wild-type C. neoformans (C. neoformans H99; 10 µM): abrogated C. neoformans growth |
| COc1cccc(-c2ncc(CN3CCC(O)(CO)CC3)s2)c1 [Hit 1] | 871.82 pmol/mL and 1017.11 pmol/mL and 1021.42 pmol/mL | not inhibited | 11.4412% and 5.382% |  | 46.34% |  |  | 40.5% | 84.8% | > 500 | 6.583% | 7.34% | 7.795% | 8.81% | 9.86% | 9.338% | 9.63% | 9.86% | 10.5% | inhibit growth similarly to C. neoformans Δsgl1; also recorded: lack of growth | % Sgl1 Inhibition (C. neoformans Sgl1; 100 µM compound, 100 µM): 79.9522%; % Cerezyme Inhibition ([2]; 12.5427 µM compound): 4.937% and 1.065%; % Cerezyme Inhibition ([2]; 800 µM compound): 12.9786% |
